Reference: patent US11667879B2, “Dynamic incubator system and method” (FOREVER LABS, INC., priority 2019, dated 2023)

Tested on: rat 9 L gliosarcoma cells
Assay: cell proliferation experiment, 9 L gliosarcoma cells
Type: cell-based
Conditions: 10 uM Fisetin for 24 hours, then 48 hours without; 72 hours, dynamic incubation vs constant
Protocol: Referring now to FIG. 11, another graph illustrating the results of another cell proliferation experiment is depicted. In this experiment, rat 9 L gliosarcoma cells after 72 hours of culture in controlled temperature and gas concentration (constant 37° C. and 5% CO2) are compared with dynamic incubation using the dynamic incubator system 10 (cycling 37° C. and 5% CO2 for 8 hrs., then 38° C. and 5.5% CO2 for 30 min.). The experiment included 10 uM Fisetin. In addition, 100,000 9 L cells were plated in a T75 flask, containing 10 mL of α-MEM medium, with 10 uM Fisetin. In addition, the medium was refreshed after 24 hours without Fisetin, and the cells were then cultured for a 48 additional hours. […] P-values are from t-test compared to control.

O=c1c(O)c(-c2ccc(O)c(O)c2)oc2cc(O)ccc12 [Fisetin]
9 L cell numbers: decreases cell numbers
